Assay results as given in patent publication US9546164B2 (GENENTECH, INC., priority 2013, dated 2017).
pIC50: −log10 of the molar value. Counter-ions that a name gives are not always drawn.
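Further: Filter-bound radioactivity counted by liquid scintillation, nonspecific binding defined with excess unlabelled ligand, IC50 fitted to percent inhibition of specific binding.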

What follows are compounds tested against hNav1.7 (Homo sapiens (Human), UniProt Q15858) (assay: Tritiated sulfonamide competitive binding to membranes from cells expressing hNav1.7 and the β1 subunit). Conditions: not given.
Chain of hNav1.7 (Q15858 other isoform, or with tags, fused parts or gaps): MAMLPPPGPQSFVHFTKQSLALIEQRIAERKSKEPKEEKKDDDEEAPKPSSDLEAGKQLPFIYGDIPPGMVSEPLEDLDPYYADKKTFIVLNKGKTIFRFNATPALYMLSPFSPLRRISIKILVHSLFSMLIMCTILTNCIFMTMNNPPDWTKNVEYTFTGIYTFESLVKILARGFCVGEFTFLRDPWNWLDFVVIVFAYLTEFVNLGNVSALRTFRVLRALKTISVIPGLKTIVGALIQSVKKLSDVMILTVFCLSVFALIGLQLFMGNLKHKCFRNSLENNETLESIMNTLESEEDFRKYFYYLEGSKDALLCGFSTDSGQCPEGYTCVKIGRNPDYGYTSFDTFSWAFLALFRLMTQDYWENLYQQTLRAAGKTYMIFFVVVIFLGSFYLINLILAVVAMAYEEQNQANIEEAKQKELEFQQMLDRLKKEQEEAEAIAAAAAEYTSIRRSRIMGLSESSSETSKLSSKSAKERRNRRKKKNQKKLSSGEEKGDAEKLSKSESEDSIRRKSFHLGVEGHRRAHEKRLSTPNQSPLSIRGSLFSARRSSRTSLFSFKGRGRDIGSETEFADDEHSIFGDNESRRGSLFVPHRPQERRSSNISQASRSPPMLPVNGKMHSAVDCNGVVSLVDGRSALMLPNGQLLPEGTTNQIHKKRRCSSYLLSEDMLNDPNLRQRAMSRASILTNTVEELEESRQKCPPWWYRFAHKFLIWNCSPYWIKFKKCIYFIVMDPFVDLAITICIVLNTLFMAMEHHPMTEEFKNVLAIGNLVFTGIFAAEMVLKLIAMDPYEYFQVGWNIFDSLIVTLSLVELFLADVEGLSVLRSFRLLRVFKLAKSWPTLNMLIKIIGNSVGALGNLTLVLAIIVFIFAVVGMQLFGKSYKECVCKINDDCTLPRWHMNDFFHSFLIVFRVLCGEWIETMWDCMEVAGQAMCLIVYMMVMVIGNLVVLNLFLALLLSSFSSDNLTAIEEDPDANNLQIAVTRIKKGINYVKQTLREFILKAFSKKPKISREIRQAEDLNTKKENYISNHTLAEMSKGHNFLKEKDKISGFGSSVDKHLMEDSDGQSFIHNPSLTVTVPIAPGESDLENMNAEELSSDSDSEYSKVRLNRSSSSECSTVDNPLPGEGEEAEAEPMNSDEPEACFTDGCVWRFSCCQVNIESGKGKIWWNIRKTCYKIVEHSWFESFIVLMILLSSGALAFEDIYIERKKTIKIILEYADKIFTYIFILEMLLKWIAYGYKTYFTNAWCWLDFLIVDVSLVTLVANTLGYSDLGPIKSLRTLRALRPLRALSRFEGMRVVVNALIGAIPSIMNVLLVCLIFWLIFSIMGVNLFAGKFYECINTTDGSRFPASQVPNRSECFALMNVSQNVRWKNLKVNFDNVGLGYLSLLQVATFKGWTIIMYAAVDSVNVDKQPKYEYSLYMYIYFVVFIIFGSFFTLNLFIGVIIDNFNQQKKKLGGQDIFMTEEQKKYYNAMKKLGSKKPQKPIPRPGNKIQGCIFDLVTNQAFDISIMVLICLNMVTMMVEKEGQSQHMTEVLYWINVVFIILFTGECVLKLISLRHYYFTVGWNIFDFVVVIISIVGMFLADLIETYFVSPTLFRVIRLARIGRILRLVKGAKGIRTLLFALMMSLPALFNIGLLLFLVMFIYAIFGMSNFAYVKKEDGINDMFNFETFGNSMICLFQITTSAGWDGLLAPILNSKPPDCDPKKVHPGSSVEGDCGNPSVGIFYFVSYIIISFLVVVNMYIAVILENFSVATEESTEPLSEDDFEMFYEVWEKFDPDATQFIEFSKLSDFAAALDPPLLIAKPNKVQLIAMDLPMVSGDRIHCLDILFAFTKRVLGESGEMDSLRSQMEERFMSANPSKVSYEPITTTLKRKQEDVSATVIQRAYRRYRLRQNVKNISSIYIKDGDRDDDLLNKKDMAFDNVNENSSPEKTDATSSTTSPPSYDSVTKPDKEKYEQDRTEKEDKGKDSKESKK
Chain of hNav1.7 (Q07699 19-218 partner): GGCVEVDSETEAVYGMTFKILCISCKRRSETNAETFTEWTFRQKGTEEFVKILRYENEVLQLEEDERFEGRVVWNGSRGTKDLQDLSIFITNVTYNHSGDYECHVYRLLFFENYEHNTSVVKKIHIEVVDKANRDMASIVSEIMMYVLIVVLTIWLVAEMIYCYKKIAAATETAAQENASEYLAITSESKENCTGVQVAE
For `C[C@H](c1cc(Cl)cc(Cl)c1)N1C[C@@H]2C[C@H]1CN2Cc1cc(F)c(C(=O)NS(=O)(=O)C2CC2)cc1C1CC1` (single isomer, unassigned) [Example 563, trifluoroacetic acid salt], the pIC50 was 8.38.
Work on `CC(C)(C)N1CCC[C@@H](Oc2cc(F)c(C(=O)NS(=O)(=O)C3CC3)cc2C2CC2)C1` [Example 539, (R)-4-((1-(tert-butyl)piperidin-3-yl)oxy)-5-cyclopropyl-N-(cyclopropylsulfonyl)-2-fluorobenzamide] yielded a pIC50 of 5.64.
Work on `O=C(NS(=O)(=O)C1CC1)c1cc(C2CC2)c(CN2CCC(Oc3ccc(Cl)cc3Cl)CC2)cc1F` [Example 547, 5-cyclopropyl-N-(cyclopropylsulfonyl)-4-((4-(2,4-dichlorophenoxy)piperidin-1-yl)methyl)-2-fluorobenzamide, trifluoroacetic acid salt] yielded a pIC50 of 8.09.
For `CS(=O)(=O)NC(=O)c1cc(C2CC2)c(OCC2CN([C@@H](c3ccccc3)c3ccc(C#N)cc3)C2)cc1F` [Example 110, (S)-4-((1-((4-Cyanophenyl)(phenyl)methyl)azetidin-3-yl)methoxy)-5-cyclopropyl-2-fluoro-N-(methylsulfonyl)benzamide], the pIC50 was 7.39.
In the case of `CC1(C)CN(Cc2cc(F)c(C(=O)NS(C)(=O)=O)cc2C2CC2)CCC1Oc1cc(C(F)(F)F)c(Cl)cn1` (stereo not shown) [Example 561, 4-((4-((5-chloro-4-(trifluoromethyl)pyridin-2-yl)oxy)-3,3-dimethylpiperidin-1-yl)methyl)-5-cyclopropyl-2-fluoro-N-(methylsulfonyl)benzamide, trifluoroacetic acid salt], the pIC50 was 8.55.
With `O=C(NS(=O)(=O)C1CC1)c1cc(C2CC2)c(CN2CCC(S(=O)(=O)c3cc(Cl)cc(Cl)c3)CC2)cc1F` [Example 533, 5-cyclopropyl-N-(cyclopropylsulfonyl)-4-((4-((3,5-dichlorophenyl)sulfonyl)piperidin-1-yl)methyl)-2-fluorobenzamide, trifluoroacetic acid salt] the pIC50 was 6.90.
With `O=C(NS(=O)(=O)C1CC1)c1cc(C2CC2)c(O[C@@H]2CCCN(Cc3ccc(F)cc3C(F)(F)F)C2)cc1F` [Example 35] the pIC50 was 8.62.
Compound `O=C(NS(=O)(=O)C1CC1)c1cc(C2CC2)c(CN2CCN(S(=O)(=O)c3cc(Cl)cc(Cl)c3)CC2)cc1F` [Example 527, 5-cyclopropyl-N-(cyclopropylsulfonyl)-4-((4-((3,5-dichlorophenyl)sulfonyl)piperazin-1-yl)methyl)-2-fluorobenzamide, trifluoroacetic acid salt] has a pIC50 of 8.00.

Same assay, conditions: read-out: Ligand Binding Assay; 100 pM [3H]compound, membranes with hNav1.7 and β1 subunit, 18 h, room temperature
`C[C@H]1CC[C@@H](Oc2cc(F)c(C(=O)NS(=O)(=O)C3CC3)cc2C2CC2)CN1Cc1ccc(F)cc1Cl` [Example 326, 4-(((3R,6S)-1-(2-chloro-4-fluorobenzyl)-6-methylpiperidin-3-yl)oxy)-5-cyclopropyl-N-(cyclopropylsulfonyl)-2-fluorobenzamide] was tested, and the pIC50 was 8.54.
In the case of `C[C@@H](c1cc(Cl)cc(Cl)c1)N1CCC(C#N)(COc2cc(F)c(C(=O)NS(C)(=O)=O)cc2C2CC2)CC1` [Example 598], the pIC50 was 6.59.
`COC[C@@H](c1ccc(Cl)cc1Cl)N1CCC(COc2cc(F)c(C(=O)NS(C)(=O)=O)cc2C2CC2)CC1` [Example 283, (R)-5-cyclopropyl-4-((1-(1-(2,4-dichlorophenyl)-2-methoxyethyl)piperidin-4-yl)methoxy)-2-fluoro-N-(methylsulfonyl)benzamide] gave a pIC50 of 8.40.
Compound `COC(C)(C)[C@@H](c1cc(Cl)cc(Cl)c1)N1CCC(COc2cc(F)c(C(=O)NS(C)(=O)=O)cc2C2CC2)CC1` (single isomer, unassigned) [Example 205] has a pIC50 of 8.60.
`CS(=O)(=O)NC(=O)c1cc(C2CC2)c(O[C@@H]2CCCN(Cc3cc(F)ccc3C(F)(F)F)C2)cc1F` [Example 318, (R)-5-cyclopropyl-2-fluoro-4-((1-(5-fluoro-2-(trifluoromethyl)benzyl)piperidin-3-yl)oxy)-N-(methylsulfonyl)benzamide] gave a pIC50 of 8.59.
For `C[C@H](c1ccc(F)cc1Cl)N1C[C@H]2C[C@@H]1[C@H](Oc1cc(F)c(C(=O)NS(C)(=O)=O)cc1C1CC1)C2` [Example 451, 4-(((1R,4s,6R)-2-((R)-1-(2-chloro-4-fluorophenyl)ethyl)-2-azabicyclo[2.2.1]heptan-6-yl)oxy)-5-cyclopropyl-2-fluoro-N-(methylsulfonyl)benzamide, trifluoroacetic acid salt], the pIC50 was 7.59.
Compound `O=C(NS(=O)(=O)C1CC1)c1cc(C2CC2)c(OCC2CCN(Cc3ccc(C4CC4)cc3Cl)CC2)cc1F` [Example 416, 4-((1-(2-chloro-4-cyclopropylbenzyl)piperidin-4-yl)methoxy)-5-cyclopropyl-N-(cyclopropylsulfonyl)-2-fluorobenzamide, trifluoroacetic acid salt] has a pIC50 of 8.28.
`CC[C@H](c1cc(Cl)cc(Cl)c1)N1CCC(COc2cc(F)c(C(=O)NS(C)(=O)=O)cc2C2CC2)CC1` [Example 240, (R)-5-cyclopropyl-4-((1-(1-(3,5-dichlorophenyl)propyl)piperidin-4-yl)methoxy)-2-fluoro-N-(methylsulfonyl)benzamide] showed a pIC50 of 8.62.
Work on `C[C@H](c1ccc(Cl)cc1Cl)N1CCC(C)(COc2cc(F)c(C(=O)NS(C)(=O)=O)cc2C2CC2)CC1` [Example 281, (R)-5-cyclopropyl-4-((1-(1-(2,4-dichlorophenyl)ethyl)-4-methylpiperidin-4-yl)methoxy)-2-fluoro-N-(methylsulfonyl)benzamide] yielded a pIC50 of 8.33.
In the case of `O=C(NS(=O)(=O)N1CCC1)c1cc(C2CC2)c(CN2CCO[C@H](Cc3ccc(F)cc3Cl)C2)cc1F` [Example 468, (R)-N-(azetidin-1-ylsulfonyl)-4-((2-(2-chloro-4-fluorobenzyl)morpholino)methyl)-5-cyclopropyl-2-fluorobenzamide, trifluoroacetic acid salt], the pIC50 was 7.95.
For `O=C(NS(=O)(=O)C1CC1)c1cc(C2CC2)c(CN2CCO[C@@H](Cc3ccc(Cl)c(Cl)c3)C2)cc1F` [Example 462], the pIC50 was 7.44.
For `CS(=O)(=O)NC(=O)c1cc(C2CC2)c(OCC2CCN(Cc3cc(Cl)c(F)cc3F)CC2)cc1F` [Example 455, trifluoroacetic acid salt], the pIC50 was 8.07.
`O=C(NS(=O)(=O)C1CC1)c1cc(C2CC2)c(OCC2CCN(Cc3cc(C(F)(F)F)cc(C4CC4)n3)CC2)cc1F` [Example 308] was tested, and the pIC50 was 8.22.
For `C[C@@H](c1cc(Cl)cc(Cl)c1)N1CCC(C)(COc2cc(F)c(C(=O)NS(C)(=O)=O)cc2C2CC2)CC1` (single isomer, unassigned) [Example 211], the pIC50 was 8.77.
In the case of `CS(=O)(=O)NC(=O)c1cc(C2CC2)c(O[C@@H]2CCCN(Cc3ccc4c(c3)OCCO4)C2)cc1F` [Example 429, (R)-5-cyclopropyl-4-((1-((2,3-dihydrobenzo[b][1,4]dioxin-6-yl)methyl)piperidin-3-yl)oxy)-2-fluoro-N-(methylsulfonyl)benzamide, trifluoroacetic acid salt], the pIC50 was 7.28.
Compound `CS(=O)(=O)NC(=O)c1cc(C2CC2)c(O[C@@H]2CCCN(Cc3ccc(C(F)(F)F)c(Cl)c3)C2)cc1F` [Example 433, (R)-4-((1-(3-chloro-4-(trifluoromethyl)benzyl)piperidin-3-yl)oxy)-5-cyclopropyl-2-fluoro-N-(methylsulfonyl)benzamide, trifluoroacetic acid salt] has a pIC50 of 8.21.
`C[C@H](c1cc(Cl)cc(C(F)(F)F)c1)N1CCC(C)(COc2cc(F)c(C(=O)NS(C)(=O)=O)cc2C2CC2)CC1` (single isomer, unassigned) [Example 278] gave a pIC50 of 8.48.
`Cc1ccc(CN2CCC[C@@H](Oc3cc(F)c(C(=O)NS(C)(=O)=O)cc3C3CC3)C2)cc1Cl` [Example 435, (R)-4-((1-(3-Chloro-4-methylbenzyl)piperidin-3-yl)oxy)-5-cyclopropyl-2-fluoro-N-(methylsulfonyl)benzamide, trifluoroacetic acid salt] showed a pIC50 of 8.27.
Work on `CS(=O)(=O)NC(=O)c1cc(C2CC2)c(OCC2CN([C@H](c3ccccc3)c3ccccc3F)C2)cc1F` [Example 125, (R)-5-Cyclopropyl-2-fluoro-4-((1-((2-fluorophenyl)(phenyl)methyl)azetidin-3-yl)methoxy)-N-(methylsulfonyl)benzamide] yielded a pIC50 of 7.60.
`CCS(=O)(=O)NC(=O)c1cc(C2CC2)c(OCC2(C)CN([C@H](C)c3cc(Cl)cc(Cl)c3)C2)cc1F` (single isomer, unassigned) [Example 288] showed a pIC50 of 8.46.
In the case of `O=C(NS(=O)(=O)C1CC1)c1cc(C2CC2)c(OCC2CCN(C(=O)c3cc(Cl)cc(Cl)c3)CC2)cc1F` [Example 254, 5-Cyclopropyl-N-(cyclopropylsulfonyl)-4-((1-(3,5-dichlorobenzoyl)piperidin-4-yl)methoxy)-2-fluorobenzamide], the pIC50 was 7.59.
`O=C(NS(=O)(=O)N1CCC1)c1cc(C2CC2)c(O[C@@H]2CCCN(c3ccccn3)C2)cc1F` [Example 493, (R)—N-(azetidin-1-ylsulfonyl)-5-cyclopropyl-2-fluoro-4-((1-(pyridin-2-yl)piperidin-3-yl)oxy)benzamide] showed a pIC50 of 6.61.
For `CS(=O)(=O)NC(=O)c1cc(C2CC2)c(OC[C@@H]2CCCN(Cc3cc(Cl)cc(Cl)c3)C2)cc1F` [Example 334, (R)-5-cyclopropyl-4-((1-(3,5-dichlorobenzyl)piperidin-3-yl)methoxy)-2-fluoro-N-(methylsulfonyl)benzamide], the pIC50 was 8.15.
In the case of `C[C@H](c1cc(Cl)cc(Cl)c1)N1CCC(COc2cc(F)c(C(=O)NS(=O)(=O)C3CC3)cc2Cl)CC1` [Example 405, (R)-5-chloro-N-(cyclopropylsulfonyl)-4-((1-(1-(3,5-dichlorophenyl)ethyl)piperidin-4-yl)methoxy)-2-fluorobenzamide, trifluoroacetic acid salt], the pIC50 was 7.82.
`C[C@@H](c1ccccc1)N1CC(COc2cc(F)c(C(=O)NS(C)(=O)=O)cc2C2CC2)C1` [Example 84, (S)-5-Cyclopropyl-2-fluoro-N-(methylsulfonyl)-4-((1-(1-phenylethyl)azetidin-3-yl)methoxy)benzamide] gave a pIC50 of 5.91.

Same assay, conditions: read-out: Ligand Binding Assay; 100 pM [3H]compound, membranes with hNav1.7 and β1 subunit, 18 h, room temperature; trifluoroacetic acid salt
In the case of `O=C(NS(=O)(=O)C1CC1)c1cc(C2CC2)c(CN2CCC(Oc3ccc(F)cc3Cl)CC2)cc1F` [Example 506, trifluoroacetic acid salt], the pIC50 was 7.84.
